The text below walks through data of paper PMC11272821, “Mechanistic safety assessment via multi-omic characterisation of systemic pathway perturbations following in vivo MAT2A inhibition” (Archives of Toxicology, 2024).

Series [1] is described as follows: Rat plasma fraction unbound by rapid equilibrium dialysis. It counts as in vitro ADME.
Series [2] is described as follows: 7-day-rat investigative safety study (in-life, histopathology, clinical chemistry). It counts as in vivo. The note with it: for liver microscopic examination, hepatocyte glycogen stores: 30 mg/kg, compared with vehicles. As for the experimental part:
All in vivo experimental procedures were conducted in accordance with United Kingdom legislation (Animals (Scientific Procedures) Act, 1986) and were compliant with the ARRIVE guidelines. 8–10 week old male (210–230 g) Crl:WI Han Wistar rats (Charles River Laboratories Ltd, UK) were acclimatised to the facility for 10 days and then randomised to groups based on bodyweight.
Following euthanasia and blood sample collections, animals were necropsied and subjected to gross examination. Samples of liver, brain and heart were collected and fixed in 10% neutral buffered formalin at room temperature for 48 h, followed by routine histology processing (Leica Biosystems) to paraffin embedded wax blocks. Paraffin embedded tissues were cut into […] sections using a microtome (Leica Biosystems) and mounted on glass microscope slides. Tissue sections were stained with hematoxylin and eosin and coverslipped. Stained slides were digitally scanned using an AT2 Scanscope pathology slide scanner (Leica Biosystems) and whole slide images were reviewed by a veterinary pathologist.
A whole blood sample (2.0 mL) was collected into lithium heparin from the caudal vena cava under isoflurane/oxygen anaesthesia immediately prior to euthanasia. Blood samples were centrifuged for 10 min at 4 °C to separate the plasma fraction. Plasma samples were divided into 0.5 mL aliquots and frozen at […] for storage prior to chemistry analysis. Plasma chemistry analysis was performed by Charles River Laboratories (Edinburgh, Scotland) following standard procedures.

For another series, the system named is HepG2 Spheroid. The experiment in a line: HepG2 C3A 3D spheroid cytotoxicity. It counts as cell-based. The note with it: 3D spheroids; read-out: HepG2 Spheroid Cytotox IC50. An excerpt:
Full curve IC50 (µM) for hERG (human ether-a-go-go-related gene) and the cardiac ion channel panel (sodium and potassium ion channels; Nav1.5, IKs, Kv4.3), along with the L-type Calcium channel (Cav-1.2 Ver; verapamil, DIL; diltiazem), HepG2 C3A 3D spheroids, HepG2 C3A (2D cultures in glucose or galactose media), and THP1 cytotoxicity.

The nature of series [3]: Liver mass spectrometry imaging. It counts as in vivo, rat. As for the experimental part:
Liver MSI. Tissue samples were snap frozen in dry ice cooled isopentane. Frozen samples were embedded in a HPMA/PVP hydrogel as previously detailed (Dannhorn et al. 2020). Tissue sectioning was performed using a CM1950 cryostat microtome (Leica Biosystems, Nussloch, Germany) at a section thickness of 10 µm. The tissue sections for desorption electrospray ionisation MSI (DESI-MSI), and matrix assisted laser desorption ionisation (MALDI-MSI) were immediately thaw mounted onto Superfrost or indium tin oxide coated microscope slides respectively. Tissue sections for positive ion mode DESI-MSI were washed with xylene for 1 minute to reduce ion suppression of metabolites of interest.
MSI analysis of most metabolites was performed by DESI-MSI and analysis of glutathione and glutathione disulphide was performed with MALDI-MSI. DESI-MSI analysis was carried out using a Q-Exactive mass spectrometer (Thermo Scientific, Bremen, Germany) equipped with an automated 2D-DESI ion source (Prosolia Inc., Indianapolis, IN, USA). Experiments were carried out in both positive and negative mode with a mass range up to a m/z of 1000, with a nominal mass resolution of 70,000. The injection time was fixed to 150 ms resulting in a scan rate of 3.8 pixel/s. […]

The next series relates to HCT116 MTAP KO cells. Briefly: HCT116 cell SAM assay, MTAP KO. It counts as cell-based. An excerpt: The structure and in vitro properties of the compound are shown in Table 1 together with potency in the HCT116 isogenic cell line (MTAP WT and KO) and in the MAT2A biochemical assay (SAM endpoint).
Series [4] has as its target T1, Phosphodiesterase PDE10A2 (Homo sapiens, UniProt Q9Y233).
T1 construct: Eurofins
The experiment in a line: Enzyme assay. It counts as biochemical. How it is done: (§1) Secondary pharmacology assays were performed at Eurofins using standard experimental techniques against a total of 86 targets across a broad pharmacological space. Assay details along with experimental protocols are described at https://www.eurofinsdiscoveryservices.com. […] Assays measuring substrate turnover or phosphorylation by isolated proteins were used for kinase and enzyme targets, allowing direct determination of the mode of action of the compounds. […] Assays were run in eight points concentration response mode with half log dilutions and IC50, EC50 or Ki (Cheng and Prusoff [1973]) values determined.

For series [5], the target named is T2, Neurotrophic receptor kinase 1 (NRK1) (Homo sapiens, UniProt P04629).
T2 construct: Eurofins
T2 sequence (P04629 33-796): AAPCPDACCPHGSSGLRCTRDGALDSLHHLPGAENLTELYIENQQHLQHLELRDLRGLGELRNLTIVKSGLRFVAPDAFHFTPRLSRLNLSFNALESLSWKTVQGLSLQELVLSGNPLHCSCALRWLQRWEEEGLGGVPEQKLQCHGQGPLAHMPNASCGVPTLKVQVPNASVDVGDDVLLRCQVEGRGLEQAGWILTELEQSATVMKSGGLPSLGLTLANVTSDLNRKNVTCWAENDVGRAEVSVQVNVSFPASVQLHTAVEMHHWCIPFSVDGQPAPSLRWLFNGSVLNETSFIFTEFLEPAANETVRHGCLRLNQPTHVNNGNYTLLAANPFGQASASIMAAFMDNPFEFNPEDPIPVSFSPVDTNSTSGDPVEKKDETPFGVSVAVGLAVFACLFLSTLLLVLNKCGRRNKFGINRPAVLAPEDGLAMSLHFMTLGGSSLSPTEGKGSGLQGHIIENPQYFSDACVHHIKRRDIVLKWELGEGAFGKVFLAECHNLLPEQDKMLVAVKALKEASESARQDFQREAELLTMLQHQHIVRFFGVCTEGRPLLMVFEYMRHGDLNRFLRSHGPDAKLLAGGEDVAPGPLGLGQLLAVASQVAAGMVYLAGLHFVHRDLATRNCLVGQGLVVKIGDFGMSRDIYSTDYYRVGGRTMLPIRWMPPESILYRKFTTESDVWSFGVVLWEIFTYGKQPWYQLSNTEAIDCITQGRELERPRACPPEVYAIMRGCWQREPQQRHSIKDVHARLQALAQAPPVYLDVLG
Briefly: Enzyme assay. It counts as biochemical. As for the experimental part: as §1

The target in series [6] is T3, Prostaglandin-endoperoxide synthase 2 (COX2) (Homo sapiens, UniProt P35354).
T3 construct: Eurofins
T3 sequence (P35354 18-604): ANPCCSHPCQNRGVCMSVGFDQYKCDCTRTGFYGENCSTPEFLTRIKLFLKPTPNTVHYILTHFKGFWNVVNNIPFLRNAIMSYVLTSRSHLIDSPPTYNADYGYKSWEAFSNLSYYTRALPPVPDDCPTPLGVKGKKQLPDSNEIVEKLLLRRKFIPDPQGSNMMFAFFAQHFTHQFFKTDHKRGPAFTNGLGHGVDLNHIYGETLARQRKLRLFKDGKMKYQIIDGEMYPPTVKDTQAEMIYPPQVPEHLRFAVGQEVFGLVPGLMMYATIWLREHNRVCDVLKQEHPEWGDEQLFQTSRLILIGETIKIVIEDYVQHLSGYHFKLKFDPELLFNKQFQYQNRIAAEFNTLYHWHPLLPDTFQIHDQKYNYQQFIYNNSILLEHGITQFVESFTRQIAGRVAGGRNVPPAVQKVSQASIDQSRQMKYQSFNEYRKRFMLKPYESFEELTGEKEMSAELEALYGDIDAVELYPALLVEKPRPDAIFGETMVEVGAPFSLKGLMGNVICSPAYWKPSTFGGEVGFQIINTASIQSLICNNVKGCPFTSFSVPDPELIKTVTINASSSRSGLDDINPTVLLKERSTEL
Briefly: Enzyme assay. It counts as biochemical. As for the experimental part:
as §1

Series [7] concerns the target T4, Glycogen synthase kinase-3 β (Homo sapiens, UniProt P49841).
T4 construct: Eurofins
Briefly: Enzyme assay. It counts as biochemical. As for the experimental part: as §1

In a further series the target is T5, Thromboxane A2 synthase (Homo sapiens, UniProt P24557).
T5 construct: Eurofins
T5 sequence (P24557 whole entry): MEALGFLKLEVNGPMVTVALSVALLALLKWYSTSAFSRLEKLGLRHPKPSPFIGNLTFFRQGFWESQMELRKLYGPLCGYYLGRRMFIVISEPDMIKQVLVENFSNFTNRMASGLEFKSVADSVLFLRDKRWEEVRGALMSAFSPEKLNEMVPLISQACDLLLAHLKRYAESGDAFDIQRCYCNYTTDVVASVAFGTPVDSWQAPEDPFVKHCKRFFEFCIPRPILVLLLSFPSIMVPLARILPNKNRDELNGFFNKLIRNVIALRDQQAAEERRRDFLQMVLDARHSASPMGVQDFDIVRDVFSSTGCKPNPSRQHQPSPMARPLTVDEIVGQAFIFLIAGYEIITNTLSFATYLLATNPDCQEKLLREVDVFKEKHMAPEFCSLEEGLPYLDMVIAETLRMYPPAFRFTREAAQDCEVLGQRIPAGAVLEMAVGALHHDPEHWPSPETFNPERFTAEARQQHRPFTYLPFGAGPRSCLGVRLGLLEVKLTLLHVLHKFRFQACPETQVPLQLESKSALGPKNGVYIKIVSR
Briefly: Enzyme assay. It counts as biochemical. How it is done:
as §1

Series [8] concerns the target T6, Fibroblast growth factor receptor 1 kinase (FGFR1 kinase) (Homo sapiens, UniProt P11362).
T6 construct: Eurofins
Briefly: Enzyme assay. It counts as biochemical. As for the experimental part: as §1

Series [9] concerns the target T7, Kinase insert domain receptor kinase (KDR) (Homo sapiens, UniProt P35968).
T7 construct: Eurofins
Briefly: Enzyme assay. It counts as biochemical. How it is done: as §1

For the next series, the target named is T8, Phosphodiesterase PDE4D2 (Homo sapiens, UniProt Q08499).
T8 construct: Eurofins
Briefly: Enzyme assay. It counts as biochemical. How it is done: as §1

The target of another series is T9, Aurora A kinase (Homo sapiens, UniProt O14965).
T9 construct: Eurofins
T9 sequence (O14965 whole entry): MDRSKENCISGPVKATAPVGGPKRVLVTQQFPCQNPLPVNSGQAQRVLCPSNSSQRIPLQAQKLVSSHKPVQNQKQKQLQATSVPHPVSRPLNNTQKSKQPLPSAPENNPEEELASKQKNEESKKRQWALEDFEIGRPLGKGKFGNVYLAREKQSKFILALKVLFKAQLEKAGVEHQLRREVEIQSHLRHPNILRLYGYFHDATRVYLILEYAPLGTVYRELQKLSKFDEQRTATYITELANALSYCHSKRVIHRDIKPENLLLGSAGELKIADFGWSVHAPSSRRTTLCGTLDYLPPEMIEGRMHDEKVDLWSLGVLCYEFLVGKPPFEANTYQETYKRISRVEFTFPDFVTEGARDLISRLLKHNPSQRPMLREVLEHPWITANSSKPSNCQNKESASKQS
Briefly: Enzyme assay. It counts as biochemical. As for the experimental part:
as §1

The next series has as its system 86 targets. The experiment in a line: Secondary pharmacology profiling against 86 targets (Eurofins). The note with it: BID dosing of 3, 10 or 30 mg/kg for 7 days. How it is done:
as §1

For orientation: IC50 means the midpoint of a concentration-inhibition curve.

T6 sequence (P11362 22-822): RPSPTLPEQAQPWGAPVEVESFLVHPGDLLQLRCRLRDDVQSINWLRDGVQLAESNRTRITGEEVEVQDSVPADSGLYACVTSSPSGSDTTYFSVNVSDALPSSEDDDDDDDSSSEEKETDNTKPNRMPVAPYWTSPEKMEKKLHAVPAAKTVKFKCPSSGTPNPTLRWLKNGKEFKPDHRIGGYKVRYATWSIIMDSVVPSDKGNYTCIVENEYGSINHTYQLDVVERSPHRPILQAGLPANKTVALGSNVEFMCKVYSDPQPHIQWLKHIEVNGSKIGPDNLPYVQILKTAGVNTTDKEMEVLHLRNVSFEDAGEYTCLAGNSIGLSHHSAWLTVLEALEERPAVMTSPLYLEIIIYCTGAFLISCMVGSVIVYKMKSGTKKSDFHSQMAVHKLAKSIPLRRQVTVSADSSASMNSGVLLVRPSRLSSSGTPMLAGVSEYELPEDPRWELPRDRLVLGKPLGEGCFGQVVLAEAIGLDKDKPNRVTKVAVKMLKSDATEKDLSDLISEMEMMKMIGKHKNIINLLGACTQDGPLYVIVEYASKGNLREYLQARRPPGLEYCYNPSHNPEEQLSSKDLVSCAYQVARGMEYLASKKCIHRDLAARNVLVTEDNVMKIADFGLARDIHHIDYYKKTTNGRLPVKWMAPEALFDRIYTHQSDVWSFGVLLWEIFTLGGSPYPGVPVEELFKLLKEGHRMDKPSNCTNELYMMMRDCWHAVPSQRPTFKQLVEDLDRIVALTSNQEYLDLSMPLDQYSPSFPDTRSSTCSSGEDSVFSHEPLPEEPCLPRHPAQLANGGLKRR
T4 sequence (P49841 whole entry): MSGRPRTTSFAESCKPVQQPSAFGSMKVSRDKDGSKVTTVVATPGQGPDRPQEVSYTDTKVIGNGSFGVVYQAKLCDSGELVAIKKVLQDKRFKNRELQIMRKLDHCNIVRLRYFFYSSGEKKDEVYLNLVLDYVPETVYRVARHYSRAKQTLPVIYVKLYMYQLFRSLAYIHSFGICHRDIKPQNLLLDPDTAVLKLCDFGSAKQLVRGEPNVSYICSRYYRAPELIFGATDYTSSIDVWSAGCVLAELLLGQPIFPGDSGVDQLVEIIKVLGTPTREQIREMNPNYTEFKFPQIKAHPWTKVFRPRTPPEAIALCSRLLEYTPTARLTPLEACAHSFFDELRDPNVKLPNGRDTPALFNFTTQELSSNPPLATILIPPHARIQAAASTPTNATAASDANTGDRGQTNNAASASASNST
T7 sequence (P35968 20-1356): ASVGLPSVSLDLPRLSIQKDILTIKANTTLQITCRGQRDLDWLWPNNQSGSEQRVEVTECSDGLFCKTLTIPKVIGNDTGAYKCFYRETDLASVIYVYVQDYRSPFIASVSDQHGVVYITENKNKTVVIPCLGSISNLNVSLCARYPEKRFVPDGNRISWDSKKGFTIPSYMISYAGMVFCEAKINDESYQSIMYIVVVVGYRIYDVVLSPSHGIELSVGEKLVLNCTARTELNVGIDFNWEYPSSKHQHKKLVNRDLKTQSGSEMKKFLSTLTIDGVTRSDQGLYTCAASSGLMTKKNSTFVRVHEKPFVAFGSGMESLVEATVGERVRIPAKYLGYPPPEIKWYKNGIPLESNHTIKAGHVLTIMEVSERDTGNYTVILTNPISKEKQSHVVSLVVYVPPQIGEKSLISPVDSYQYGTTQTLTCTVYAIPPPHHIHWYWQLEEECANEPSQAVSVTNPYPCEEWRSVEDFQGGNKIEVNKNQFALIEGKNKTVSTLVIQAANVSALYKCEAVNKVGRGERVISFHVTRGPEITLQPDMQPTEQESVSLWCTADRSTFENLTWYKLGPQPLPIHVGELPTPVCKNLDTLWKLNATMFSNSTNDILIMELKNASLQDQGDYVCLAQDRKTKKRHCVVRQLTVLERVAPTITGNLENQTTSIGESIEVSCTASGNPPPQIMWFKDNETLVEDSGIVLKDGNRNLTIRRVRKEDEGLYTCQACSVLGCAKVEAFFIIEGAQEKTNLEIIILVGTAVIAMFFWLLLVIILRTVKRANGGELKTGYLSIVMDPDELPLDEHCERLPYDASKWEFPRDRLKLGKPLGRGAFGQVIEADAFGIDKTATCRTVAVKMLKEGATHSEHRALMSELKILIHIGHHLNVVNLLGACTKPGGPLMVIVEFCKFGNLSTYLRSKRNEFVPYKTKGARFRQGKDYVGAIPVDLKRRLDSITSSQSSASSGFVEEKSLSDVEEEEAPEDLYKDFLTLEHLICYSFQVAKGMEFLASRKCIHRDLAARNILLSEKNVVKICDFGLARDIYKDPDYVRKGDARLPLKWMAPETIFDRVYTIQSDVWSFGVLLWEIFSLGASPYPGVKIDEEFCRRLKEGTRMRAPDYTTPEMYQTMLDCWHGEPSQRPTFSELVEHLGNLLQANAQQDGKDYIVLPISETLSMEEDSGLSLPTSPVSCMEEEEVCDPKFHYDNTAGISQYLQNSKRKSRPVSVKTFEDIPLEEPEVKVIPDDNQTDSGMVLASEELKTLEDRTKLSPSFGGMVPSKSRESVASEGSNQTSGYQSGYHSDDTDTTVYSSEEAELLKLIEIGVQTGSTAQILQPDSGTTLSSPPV

In the case of `Cn1cc2cc(-c3cc4[nH]nc(C5CC5)c4n(-c4ccc(OC(F)F)cc4)c3=O)ccc2n1` [AZ’9567], the “rat plasma fraction unbound” value in series [1] is recorded as 0.00614. The “liver microscopic examination, hepatocyte glycogen stores” value in series [2] (listed as AZMAT2Ai) is given as “decrease in glycogen stores”; in [2] (listed as MAT2Ai), “minimal decrease in hepatocyte glycogen stores”. In addition, the “clinical observations during the in-life phase” value in [2] (3, 10, 30 mg/kg BID, 7 days) was “no clinical observations”. In series [2] (8-days study), the “liver steatosis, histopathology” value is given as “no histopathological evidence of liver steatosis”. Also, in [2] (all dose groups), the “food consumption and body weight” value is “significant drop”. In addition, in series [2] (any dose group), the liver pathology result is given as “No significant abnormalities detected”. Further, the bone marrow histopathology entry in series [2] (data not shown) was “bone marrow toxicity affecting mostly the erythroid compartment”. Also, in [2] (loss of both exocrine and endocrine parenchyma, data not shown), the pancreas histopathology entry was “dose-dependent pancreatic necrosis”. Also, in [2] (rat, in vivo), the “histopathological examination of the heart or brain” value is given as “No microscopic abnormalities”. In [2] (vehicle vs treated animals), the “plasma chemistry: markers of liver injury or cholesterol levels” value is given as “no differences”. Also, the half-inhibitory concentration (IC50) with HepG2 Spheroid amounted to 58.7 µM; in series [4] it was 10.8 µM; in [5], 38.3 µM; in series [6], 44 µM; in series [7] it was 1600 nM; against Thromboxane A2 synthase, 9 µM. Moreover, the IC50 in series [8] was found to be 49.9 µM; in [9], 9.5 µM; on Phosphodiesterase PDE4D2 it was 4.1 µM; against Aurora A kinase, 84.1 µM. Further, the “distribution of the compound in liver sections” value in series [3] was “mostly homogenously across the liver with hotspots of increased abundance in the blood vessels”. Also, the “HCT116 cell SAM MTAP KO pIC50” value in the series on HCT116 MTAP KO cells is on record as 8.9. In addition, the “cover of secondary pharmacology targets by plasma free Cmax in rats” value in the series on 86 targets was “none of these targets was covered”.
